# Measurements published in US6355799B1, “Substituted benzene compounds, process for their preparation, and herbicidal and defoliant compositions containing them” (ISK Americas Incorporated, priority 1997, dated 2002).
# Tests used:
# Format in all cases: in vivo
# [1] = tested on: redroot pigweed (Amaranthus retroflexus, AMARE); experiment: Pre-emerge test, greenhouse herbicide activity screening; settings: rated 14 days after application, 0 = no damage, 100 = complete death
# Outline: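 Visual ratings on a 0-100 scale (0 no damage, 100 all plants dead) were taken at 14 days after treatment. Rates of 15-1000 g ai/ha in acetone, 187 l/ha, were sprayed onto soil one day after planting (pre-emerge) or onto 2-3 leaf plants with 0.25% v/v surfactant (post-emerge).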
# [2] = tested on: barnyardgrass (Echinochloa crus-galli, ECHCG); experiment: as above; settings: rated 14 days after application, 0 = no damage, 100 = complete death
# Outline: (§1)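 Applied at 15–1000 g ai/ha from acetone in 187 l/ha spray volume. Post-emergence applications included 0.25% v/v non-ionic surfactant and reached plants sown 8–21 days before. Pre-emergence applications were incorporated by surface watering. Efficacy or crop damage was rated on a 0–100 scale after 14 days.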
# [3] = tested on: common ragweed (Ambrosia artemisizfolia L., AMBEL); experiment: as above; settings: rated 14 days after application, 0 = no damage, 100 = complete death
# Outline: as §1
# [4] = tested on: green foxtail (Setaria viridis, SETVI); experiment: as above; settings: rated 14 days after application, 0 = no damage, 100 = complete death
# Outline: as §1
# [5] = tested on: ivyleaf morningglory (Ipomoea hederacea, IPOHE); experiment: as above; settings: rated 14 days after application, 0 = no damage, 100 = complete death
# Outline: as §1
# [6] = tested on: johnsongrass (Sorghum halepense, SORHA); experiment: as above; settings: rated 14 days after application, 0 = no damage, 100 = complete death
# Outline: as §1
# [7] = tested on: lambsquarters (Chenopodium album, CHEAL); experiment: as above; settings: rated 14 days after application, 0 = no damage, 100 = complete death
# Outline: as §1
# [8] = tested on: large crabgrass (Digitaria sanguinalis, DIGSA); experiment: as above; settings: rated 14 days after application, 0 = no damage, 100 = complete death
# Outline: as §1
# [9] = tested on: sicklepod (Cassia obtusifolia, CASOB); experiment: as above; settings: rated 14 days after application, 0 = no damage, 100 = complete death
# Outline: as §1
# [10] = tested on: velvetleaf (Abutilon theophrasti, ABUTH); experiment: as above; settings: rated 14 days after application, 0 = no damage, 100 = complete death
# Outline: as §1
# [11] = tested on: field corn (Zea mays L., var. Dekalb 535, CORN); experiment: Pre-emerge test, crop safety; settings: rated 14 days after application, 0 = no damage, 100 = complete death
# Outline: (§2)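 Compounds in acetone were track-sprayed at 15-1000 g ai/ha (187 l/ha) on sandy loam pots: pre-emerge one day after seeding, post-emerge at 2-3 leaf stage with 0.25% v/v non-ionic surfactant. Phytotoxicity was rated 14 days later on a 0 (no damage) to 100 (complete death) scale.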
# [12] = tested on: upland rice (Oryza sp., var. Tebonnet, RICE); experiment: Pre-emerge test, crop safety; settings: rated 14 days after application, 0 = no damage, 100 = complete death
# Outline: as §2
# [13] = tested on: barnyardgrass (Echinochloa crus-galli, ECHCG); experiment: Post-emerge test, greenhouse herbicide activity screening; settings: post-emerge, 14 days after application, rating scale 0-100
# Outline: (§3)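 Herbicidal damage is scored 0 (none) to 100 (complete plant death) two weeks after a simulated field spray. Rates span 15–1000 g ai/ha, delivered in acetone at 187 l/ha. For post-emergence treatments, plants have 2–3 leaves and the spray carries 0.25% v/v non-ionic surfactant.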
# [14] = tested on: common ragweed (Ambrosia artemisizfolia L., AMBEL); experiment: as above; settings: post-emerge, 14 days after application, rating scale 0-100
# Outline: as §3
# [15] = tested on: green foxtail (Setaria viridis, SETVI); experiment: as above; settings: post-emerge, 14 days after application, rating scale 0-100
# Outline: as §3
# [16] = tested on: ivyleaf morningglory (Ipomoea hederacea, IPOHE); experiment: as above; settings: post-emerge, 14 days after application, rating scale 0-100
# Outline: as §3
# [17] = tested on: johnsongrass (Sorghum halepense, SORHA); experiment: as above; settings: post-emerge, 14 days after application, rating scale 0-100
# Outline: as §3
# [18] = tested on: lambsquarters (Chenopodium album, CHEAL); experiment: as above; settings: post-emerge, 14 days after application, rating scale 0-100
# Outline: as §3
# [19] = tested on: large crabgrass (Digitaria sanguinalis, DIGSA); experiment: as above; settings: post-emerge, 14 days after application, rating scale 0-100
# Outline: as §3
# [20] = tested on: redroot pigweed (Amaranthus retroflexus, AMARE); experiment: as above; settings: post-emerge, 14 days after application, rating scale 0-100
# Outline: as §3
# [21] = tested on: sicklepod (Cassia obtusifolia, CASOB); experiment: as above; settings: post-emerge, 14 days after application, rating scale 0-100
# Outline: as §3
# [22] = tested on: velvetleaf (Abutilon theophrasti, ABUTH); experiment: as above; settings: post-emerge, 14 days after application, rating scale 0-100
# Outline: as §3
# [23] = tested on: field corn (Zea mays L., var. Dekalb 535, CORN); experiment: Post-emerge test, crop safety; settings: post-emerge, 14 days after application, rating scale 0-100
# Outline: as §1
# [24] = tested on: upland rice (Oryza sp., var. Tebonnet, RICE); experiment: Post-emerge test, crop safety; settings: post-emerge, 14 days after application, rating scale 0-100
# Outline: as §1
smiles,measurement,setting,value
COc1c(Cl)cc(F)c(-n2c(=O)cc(C(F)(F)F)n(C)c2=O)c1NC(=O)c1ccc(Cl)cc1Cl [2-58],"Pre-emerge Herbicidal Activity, phytotoxicity rating (0-100), AMARE",[1]; 63 g ai/ha,100
same,"Pre-emerge Herbicidal Activity, phytotoxicity rating (0-100), AMARE",[1]; 250 g ai/ha,100
same,"Pre-emerge Herbicidal Activity, phytotoxicity rating (0-100), ECHCG",[2]; 63 g ai/ha,50
same,"Pre-emerge Herbicidal Activity, phytotoxicity rating (0-100), ECHCG",[2]; 250 g ai/ha,100
same,"Pre-emerge Herbicidal Activity, phytotoxicity rating (0-100), AMBEL",[3]; 63 g ai/ha,50
same,"Pre-emerge Herbicidal Activity, phytotoxicity rating (0-100), AMBEL",[3]; 250 g ai/ha,100
same,"Pre-emerge Herbicidal Activity, phytotoxicity rating (0-100), SETVI",[4]; 63 g ai/ha,100
same,"Pre-emerge Herbicidal Activity, phytotoxicity rating (0-100), SETVI",[4]; 250 g ai/ha,100
same,"Pre-emerge Herbicidal Activity, phytotoxicity rating (0-100), IPOHE",[5]; 63 g ai/ha,20
same,"Pre-emerge Herbicidal Activity, phytotoxicity rating (0-100), IPOHE",[5]; 250 g ai/ha,100
same,"Pre-emerge Herbicidal Activity, phytotoxicity rating (0-100), SORHA",[6]; 63 g ai/ha,70
same,"Pre-emerge Herbicidal Activity, phytotoxicity rating (0-100), SORHA",[6]; 250 g ai/ha,100
same,"Pre-emerge Herbicidal Activity, phytotoxicity rating (0-100), CHEAL",[7]; 63 g ai/ha,100
same,"Pre-emerge Herbicidal Activity, phytotoxicity rating (0-100), CHEAL",[7]; 250 g ai/ha,100
same,"Pre-emerge Herbicidal Activity, phytotoxicity rating (0-100), DIGSA",[8]; 63 g ai/ha,90
same,"Pre-emerge Herbicidal Activity, phytotoxicity rating (0-100), DIGSA",[8]; 250 g ai/ha,100
same,"Pre-emerge Herbicidal Activity, phytotoxicity rating (0-100), CASOB",[9]; 63 g ai/ha,30
same,"Pre-emerge Herbicidal Activity, phytotoxicity rating (0-100), CASOB",[9]; 250 g ai/ha,99
same,"Pre-emerge Herbicidal Activity, phytotoxicity rating (0-100), ABUTH",[10]; 63 g ai/ha,100
same,"Pre-emerge Herbicidal Activity, phytotoxicity rating (0-100), ABUTH",[10]; 250 g ai/ha,100
same,"Pre-emerge phytotoxicity rating (0-100), crop damage, CORN",[11]; 63 g ai/ha,40
same,"Pre-emerge phytotoxicity rating (0-100), crop damage, CORN",[11]; 250 g ai/ha,95
same,"Pre-emerge phytotoxicity rating (0-100), crop damage, RICE",[12]; 63 g ai/ha,80
same,"Pre-emerge phytotoxicity rating (0-100), crop damage, RICE",[12]; 250 g ai/ha,95
same,phytotoxicity rating ECHCG,[13]; 63 g ai/ha,20
same,phytotoxicity rating ECHCG,[13]; 250 g ai/ha,90
same,phytotoxicity rating AMBEL,[14]; 63 g ai/ha,100
same,phytotoxicity rating AMBEL,[14]; 250 g ai/ha,100
same,phytotoxicity rating SETVI,[15]; 63 g ai/ha,50
same,phytotoxicity rating SETVI,[15]; 250 g ai/ha,60
same,phytotoxicity rating IPOHE,[16]; 63 g ai/ha,95
same,phytotoxicity rating IPOHE,[16]; 250 g ai/ha,100
same,phytotoxicity rating SORHA,[17]; 63 g ai/ha,20
same,phytotoxicity rating SORHA,[17]; 250 g ai/ha,90
same,phytotoxicity rating CHEAL,[18]; 63 g ai/ha,100
same,phytotoxicity rating CHEAL,[18]; 250 g ai/ha,100
same,phytotoxicity rating DIGSA,[19]; 63 g ai/ha,10
same,phytotoxicity rating DIGSA,[19]; 250 g ai/ha,40
same,phytotoxicity rating AMARE,[20]; 63 g ai/ha,100
same,phytotoxicity rating AMARE,[20]; 250 g ai/ha,100
same,phytotoxicity rating CASOB,[21]; 63 g ai/ha,100
same,phytotoxicity rating CASOB,[21]; 250 g ai/ha,100
same,phytotoxicity rating ABUTH,[22]; 63 g ai/ha,100
same,phytotoxicity rating ABUTH,[22]; 250 g ai/ha,100
same,phytotoxicity rating CORN,[23]; 63 g ai/ha,40
same,phytotoxicity rating CORN,[23]; 250 g ai/ha,90
same,phytotoxicity rating RICE,[24]; 63 g ai/ha,50
same,phytotoxicity rating RICE,[24]; 250 g ai/ha,85
COc1c(Cl)cc(F)c(-n2c(=O)cc(C(F)(F)F)n(C)c2=O)c1NC(=O)c1ccc(F)cc1 [2-40],"Pre-emerge Herbicidal Activity, phytotoxicity rating (0-100), AMARE",[1]; 63 g ai/ha,100
same,"Pre-emerge Herbicidal Activity, phytotoxicity rating (0-100), AMARE",[1]; 250 g ai/ha,100
same,"Pre-emerge Herbicidal Activity, phytotoxicity rating (0-100), ECHCG",[2]; 63 g ai/ha,85
same,"Pre-emerge Herbicidal Activity, phytotoxicity rating (0-100), ECHCG",[2]; 250 g ai/ha,100
same,"Pre-emerge Herbicidal Activity, phytotoxicity rating (0-100), AMBEL",[3]; 63 g ai/ha,100
same,"Pre-emerge Herbicidal Activity, phytotoxicity rating (0-100), AMBEL",[3]; 250 g ai/ha,100
same,"Pre-emerge Herbicidal Activity, phytotoxicity rating (0-100), SETVI",[4]; 63 g ai/ha,100
same,"Pre-emerge Herbicidal Activity, phytotoxicity rating (0-100), SETVI",[4]; 250 g ai/ha,100
same,"Pre-emerge Herbicidal Activity, phytotoxicity rating (0-100), IPOHE",[5]; 63 g ai/ha,90
same,"Pre-emerge Herbicidal Activity, phytotoxicity rating (0-100), IPOHE",[5]; 250 g ai/ha,100
same,"Pre-emerge Herbicidal Activity, phytotoxicity rating (0-100), SORHA",[6]; 63 g ai/ha,60
same,"Pre-emerge Herbicidal Activity, phytotoxicity rating (0-100), SORHA",[6]; 250 g ai/ha,100
same,"Pre-emerge Herbicidal Activity, phytotoxicity rating (0-100), CHEAL",[7]; 63 g ai/ha,100
same,"Pre-emerge Herbicidal Activity, phytotoxicity rating (0-100), CHEAL",[7]; 250 g ai/ha,100
same,"Pre-emerge Herbicidal Activity, phytotoxicity rating (0-100), DIGSA",[8]; 63 g ai/ha,90
same,"Pre-emerge Herbicidal Activity, phytotoxicity rating (0-100), DIGSA",[8]; 250 g ai/ha,100
same,"Pre-emerge Herbicidal Activity, phytotoxicity rating (0-100), CASOB",[9]; 63 g ai/ha,80
same,"Pre-emerge Herbicidal Activity, phytotoxicity rating (0-100), CASOB",[9]; 250 g ai/ha,100
same,"Pre-emerge Herbicidal Activity, phytotoxicity rating (0-100), ABUTH",[10]; 63 g ai/ha,100
same,"Pre-emerge Herbicidal Activity, phytotoxicity rating (0-100), ABUTH",[10]; 250 g ai/ha,100
same,"Pre-emerge phytotoxicity rating (0-100), crop damage, CORN",[11]; 63 g ai/ha,50
same,"Pre-emerge phytotoxicity rating (0-100), crop damage, CORN",[11]; 250 g ai/ha,95
same,"Pre-emerge phytotoxicity rating (0-100), crop damage, RICE",[12]; 63 g ai/ha,95
same,"Pre-emerge phytotoxicity rating (0-100), crop damage, RICE",[12]; 250 g ai/ha,100
same,phytotoxicity rating ECHCG,[13]; 63 g ai/ha,0
same,phytotoxicity rating ECHCG,[13]; 250 g ai/ha,100
same,phytotoxicity rating AMBEL,[14]; 63 g ai/ha,80
same,phytotoxicity rating AMBEL,[14]; 250 g ai/ha,100
same,phytotoxicity rating SETVI,[15]; 63 g ai/ha,10
same,phytotoxicity rating SETVI,[15]; 250 g ai/ha,90
same,phytotoxicity rating IPOHE,[16]; 63 g ai/ha,100
same,phytotoxicity rating IPOHE,[16]; 250 g ai/ha,100
same,phytotoxicity rating SORHA,[17]; 63 g ai/ha,30
same,phytotoxicity rating SORHA,[17]; 250 g ai/ha,100
same,phytotoxicity rating CHEAL,[18]; 63 g ai/ha,80
same,phytotoxicity rating CHEAL,[18]; 250 g ai/ha,95
same,phytotoxicity rating DIGSA,[19]; 63 g ai/ha,10
same,phytotoxicity rating DIGSA,[19]; 250 g ai/ha,90
same,phytotoxicity rating AMARE,[20]; 63 g ai/ha,90
same,phytotoxicity rating AMARE,[20]; 250 g ai/ha,100
same,phytotoxicity rating CASOB,[21]; 63 g ai/ha,50
same,phytotoxicity rating CASOB,[21]; 250 g ai/ha,90
same,phytotoxicity rating ABUTH,[22]; 63 g ai/ha,100
same,phytotoxicity rating ABUTH,[22]; 250 g ai/ha,100
same,phytotoxicity rating CORN,[23]; 63 g ai/ha,40
same,phytotoxicity rating CORN,[23]; 250 g ai/ha,90
same,phytotoxicity rating RICE,[24]; 63 g ai/ha,50
same,phytotoxicity rating RICE,[24]; 250 g ai/ha,95
